Experimental data published in patent US4057686A, “Sulphonic acid salts of S-adenosilmethionine” (Bioresearch Limited, priority 1974, dated 1977).

Legend:
[1] = test system: Parkinsons disease and Parkinsonisms; experiment: Clinical tests: Parkinsons disease and Parkinsonisms, with Levodopa; assay type: in vivo, human; conditions: Levodopa alone
[2] = SAM content / stability on storage in the dry state; assay type: physicochemical; conditions: 60 days at 45°
Protocol: The great technical progress achieved by these new salts is their stability with time at 45° in the dry state.
The SAM content of all acids according to the present invention remains unchanged even after […] at 45° in the dry state.

Row | Compound | extent of the Parkinson tremor [1] | decomposition after 60 days [2]
1 | N[C@@H](Cc1ccc(O)c(O)c1)C(=O)O [Levodopa, reference compound] | cannot be modified | –
2 | C[S+](CC[C@H](N)C(=O)O)C[C@H]1O[C@@H](n2cnc3c(N)ncnc32)[C@H](O)[C@@H]1O (some centres unmarked) [chloride] | – | completely decomposed
